In publication PMC7315563, “Bioactive fluorenes. Part III: 2,7-dichloro-9H-fluorene-based thiazolidinone and azetidinone analogues as anticancer and antimicrobial against multidrug resistant strains agents” (BMC Chemistry, 2020):
Converted amounts (≈) assume the structure as drawn.

Experiments:
[1] = test system: Klebsiella pneumoniae (K. pneumoniae), multidrug resistant clinical isolate; assay: agar well diffusion assay; assay type: cell-based; details: 24 h, 500 µg/mL of tested compound
How it was run: (§1)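 Multidrug-resistant clinical isolates swabbed on Mueller–Hinton agar at about 1–5 × 10^5 CFU/mL; 0.5 cm wells received 50 μL compound at 500 μg/mL in 1% DMSO. Incubation 24 h, 37 °C for bacteria and C. albicans, 25 °C for Aspergillus; inhibition zone diameter measured in mm.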

[2] = test system: Pseudomonas aeruginosa (P. aeruginosa), multidrug resistant clinical isolate; assay: agar well diffusion assay; assay type: cell-based; details: 24 h, 500 µg/mL of tested compound
How it was run: as §1

[3] = test system: Staphylococcus aureus (S. aureus), multidrug resistant clinical isolate; assay: agar well diffusion assay; assay type: cell-based; details: S. aureus, 500 µg/mL of tested compound, 24 h; for zone of inhibition at 500 µg/mL: Staphylococcus aureus
How it was run: as §1

[4] = test system: A549 human lung cancer cells; assay: cell viability assay (MTT); assay type: cell-based; details: 24 h; for viability at 1 µg/mL: read-out: Validity (%) for sample concentrations (µg/mL) 1; for viability at 10 µg/mL: read-out: Validity (%) for sample concentrations (µg/mL) 10; for viability at 31.25 µg/mL: read-out: Validity (%) for sample concentrations (µg/mL) 31.25; for viability at 62.5 µg/mL: 62.50 µg/mL, read-out: Validity (%) for sample concentrations (µg/mL) 62.50; for viability at 125 µg/mL: read-out: Validity (%) for sample concentrations (µg/mL) 125; for viability at 250 µg/mL: read-out: Validity (%) for sample concentrations (µg/mL) 250; for viability at 500 µg/mL: read-out: Validity (%) for sample concentrations (µg/mL) 500; for viability at 1000 µg/mL: read-out: Validity (%) for sample concentrations (µg/mL) 1000
A549 cells = assay: FACS analysis, Annexin V and PI staining; assay type: cell-based, human; details: 24 h, 5g 500, 6c 85, 6d 117, 6k 200 µg/mL
Method: (§2) To uncover the mechanism of cell death for the compounds 5h, 6c, 6d and 6k on WI-38, A549, and MDA-MB-231 cells; Annexin v and propedium Iodide (PI) were used. In brief, WI-38, A549, MDA-MB-231 cells were cultured in 10 tissue culture dish with initial number 4 × 10^5 cell/Ml in RPMI growth media. In the following day, cells were treated with 6c, 6d and 6k as the following; (0.0, 500 μg/mL form each drug for WI-38 treatment, 0.0, 85, 117 and 200 μg/mL; respectively, for […] and 0.0, 250 from each for MDA-MB-231 cells treatment). After 24 h incubations, cells were washed and trypsinized and suspended in 50 μL 1X Annexin v binding buffer followed by adding 5 μL FITC Annexin V and incubated for 15 min at room temperature then 5 μL of PI were added to each tube. Finally, 400 μL of 1X Annexin v binding buffer were added to each tube and analyzed using Becton-Dickinson FACS Caliber.

WI-38 cells = assay: FACS analysis, Annexin V and PI staining; assay type: cell-based, human; details: 24 h, 5g 1000 µg/mL, 6c, 6d, 6k 500 µg/mL
Method: as §2

MDA-MB-231 cells = assay: FACS analysis, Annexin V and PI staining; assay type: cell-based, human; details: 24 h, 5g 500, 6c 105, 6d 170, 6k 130 µg/mL
Method: To uncover the mechanism of cell death for the compounds 5h, 6c, 6d and 6k on WI-38, A549, and MDA-MB-231 cells; Annexin v and propedium Iodide (PI) were used. In brief, WI-38, A549, MDA-MB-231 cells were cultured in 10 tissue culture dish with initial number 4 × 10^5 cell/Ml in RPMI growth media. […] After 24 h incubations, cells were washed and trypsinized and suspended in 50 μL 1X Annexin v binding buffer followed by adding 5 μL FITC Annexin V and incubated for 15 min at room temperature then 5 μL of PI were added to each tube. Finally, 400 μL of 1X Annexin v binding buffer were added to each tube and analyzed using Becton-Dickinson FACS Caliber.

O=C1C(Cl)C(c2ccc(Cl)cc2)N1c1nc(-c2cc(Cl)cc3c2-c2ccc(Cl)cc2C3)cs1 (stereo not drawn) [6c, 3-Chloro-4-(4-chlorophenyl)-1-(4-(2,7-dichloro-9H-fluoren-4-yl)thiazol-2-yl)azetidin-2-one]
zone of inhibition at 500 µg/mL [1]: 6 mm
zone of inhibition at 500 µg/mL [2]: 10 mm
zone of inhibition at 500 µg/mL [3]: 7 mm
viability at 1 µg/mL [4]: 92.4%
viability at 10 µg/mL [4]: 80.7%
viability at 31.25 µg/mL [4]: 59.8%
viability at 62.5 µg/mL [4]: 54.2%
viability at 125 µg/mL [4]: 31.3%
viability at 250 µg/mL [4]: 25.1%
viability at 500 µg/mL [4]: 19.7%
viability at 1000 µg/mL [4]: 17.7%
IC50 [4]: 85 µg/mL (≈ 160 µM)
apoptotic cell death (of total cell number) (A549 cells): 27.32%
necrotic cell death (of total cell number) (A549 cells): 2.1%
apoptotic cell death (of total cell number) (WI-38 cells): 1.22%
necrotic cell death (of total cell number) (WI-38 cells): 14.5%
apoptotic cell death (of total cell number) (MDA-MB-231 cells): 80.32%
necrotic cell death (of total cell number) (MDA-MB-231 cells): 2.15%

O=C1C(Cl)C(c2ccc(Br)cc2)N1c1nc(-c2cc(Cl)cc3c2-c2ccc(Cl)cc2C3)cs1 (stereo not drawn) [6d, 4-(4-Bromophenyl)-3-chloro-1-(4-(2,7-dichloro-9H-fluoren-4-yl)thiazol-2-yl)azetidin-2-one]
zone of inhibition at 500 µg/mL [1]: 6 mm
zone of inhibition at 500 µg/mL [2]: 10 mm
Mean zone of inhibition [3]: low activity
zone of inhibition at 500 µg/mL [3]: 3 mm
viability at 1 µg/mL [4]: 97.9%
viability at 10 µg/mL [4]: 92.6%
viability at 31.25 µg/mL [4]: 77.2%
viability at 62.5 µg/mL [4]: 67.3%
viability at 125 µg/mL [4]: 49%
viability at 250 µg/mL [4]: 24.6%
viability at 500 µg/mL [4]: 20.4%
viability at 1000 µg/mL [4]: 19.4%
IC50 [4]: 117 µg/mL (≈ 203 µM)
apoptotic cell death (of total cell number) (A549 cells): 36.3%
necrotic cell death (of total cell number) (A549 cells): 2%
apoptotic cell death (of total cell number) (WI-38 cells): 1.34%
necrotic cell death (of total cell number) (WI-38 cells): 14.1%
apoptotic cell death (of total cell number) (MDA-MB-231 cells): 55.355%

O=C1C(Cl)C(c2cccs2)N1c1nc(-c2cc(Cl)cc3c2-c2ccc(Cl)cc2C3)cs1 (stereo not drawn) [6k, 3-Chloro-1-(4-(2,7-dichloro-9H-fluoren-4-yl)thiazol-2-yl)-4-(thiophen-2-yl)azetidin-2-one]
zone of inhibition at 500 µg/mL [1]: 3 mm
zone of inhibition at 500 µg/mL [2]: 11 mm
zone of inhibition at 500 µg/mL [3]: 7 mm
viability at 1 µg/mL [4]: 90.8%
viability at 10 µg/mL [4]: 80.8%
viability at 31.25 µg/mL [4]: 76%
viability at 62.5 µg/mL [4]: 70.6%
viability at 125 µg/mL [4]: 55.4%
viability at 250 µg/mL [4]: 39.8%
viability at 500 µg/mL [4]: 28.7%
viability at 1000 µg/mL [4]: 23%
IC50 [4]: 203 µg/mL (≈ 403 µM)
apoptotic cell death (of total cell number) (A549 cells): 32.67%
necrotic cell death (of total cell number) (A549 cells): 1.71%
apoptotic cell death (of total cell number) (WI-38 cells): 0.61%
necrotic cell death (of total cell number) (WI-38 cells): 9.93%
apoptotic cell death (of total cell number) (MDA-MB-231 cells): 67.25%
necrotic cell death (of total cell number) (MDA-MB-231 cells): 4.56%
